Data reported in US11180504B2 (ORCHID PHARMA LTD., priority 2016, dated 2021).
Values after ≈ are worked out from the molar mass of the structure shown. Where two headings read alike, the source gives them in different places.

Key:
[1] = test system: methicillin-sensitive Staphylococcus aureus; experiment: MIC by broth micro-dilution (CLSI), methicillin-sensitive S. aureus; type: cell-based; conditions: MSSA S. aureus ATCC29213
[2] = test system: carbapenem sensitive Pseudomonas aeruginosa; experiment: MIC by broth micro-dilution (CLSI), carbapenem sensitive P. aeruginosa; type: cell-based
[3] = test system: carbapenemase producing K. pneumoniae; experiment: MIC by broth micro-dilution (CLSI), carbapenemase producing K. pneumoniae; type: cell-based, Klebsiella pneumoniae
[4] = test system: carbapenem sensitive Escherichia coli; experiment: MIC by broth micro-dilution (CLSI), carbapenem sensitive E. coli; type: cell-based
[5] = Staphylococcus aureus, ATCC 29213 / MSSA, read-out: MIC
[6] = Pseudomonas aeruginosa, ATCC27853, Meropenem susceptible P. aeruginosa ATCC27853, read-out: MIC
[7] = Klebsiella pneumoniae, ATCCBAA1705, KPC-2 K. pneumoniae ATCC BAA-1705, read-out: MIC
[8] = Escherichia coli, ATCC25922, ESBL −ve E. coli ATCC25922, read-out: MIC

Structure (SMILES)	MIC [1, 5] [µg/mL]	MIC [2, 6] [µg/mL]	MIC [3, 7] [µg/mL]	MIC [4, 8] [µg/mL]	MIC [1] [µg/mL]	MIC ([2]; Meropenem susceptible P. aeruginosa ATCC27853) [µg/mL]	MIC ([3]; KPC-2 K. pneumoniae ATCC BAA-1705) [µg/mL]	MIC ([4]; ESBL −ve E. coli ATCC25922) [µg/mL]	MIC ([3]; Klebsiella pneumoniae, ATCCBAA1705) [µg/mL]
C[C@@H](NC(=O)Cn1cnnn1)[C@H]1C(=O)N2C(C(=O)O)=C(SCCNC(=N)N)[C@H](C)[C@H]12 [Example 579, (4R,5S,6R)-6-((R)-1-(2-(1H-tetrazol-1-yl)acetamido)ethyl)-3-(2-guanidinoethylthio)-4-methyl-7-oxo-1-azabicyclo[3.2.0]hept-2-ene-carboxylic acid]	4 (≈ 9.14 µM)	16 (≈ 36.6 µM)	1 (≈ 2.29 µM)	0.25 (≈ 0.571 µM)	–	–	–	–	–
C[C@@H](NC(=O)Cn1cnnn1)[C@H]1C(=O)N2C(C(=O)O)=C(S[C@@H]3CN[C@H](C(=O)N4CCCNCC4)C3)[C@H](C)[C@H]12 [Example 516, (4R,5S,6R)-3-((3S,5S)-5-(1,4-diazepane-1-carbonyl)pyrrolidin-3-ylthio)-6-((R)-1-(2-(1H-tetrazol-1-yl)acetamido)ethyl)-4-methyl-7-oxo-1-azabicyclo[3.2.0]hept-2-ene-2-carboxylic acid]	2 (≈ 3.65 µM)	2 (≈ 3.65 µM)	2 (≈ 3.65 µM)	0.25 (≈ 0.457 µM)	–	–	–	–	–
C[C@@H](NC(=O)Cn1cnnn1)[C@H]1C(=O)N2C(C(=O)O)=C(S[C@@H]3CN[C@H](C(=O)N4CC[C@@H](C(C)(C)N)C4)C3)[C@H](C)[C@H]12 [Example 500, (4R,5S,6R)-6-((R)-1-(2-(1H-tetrazol-1-yl)acetamido)ethyl)-3-((3S,5S)-5-((R)-3-(2-aminopropan-2-yl)pyrrolidine-1-carbonyl)pyrrolidin-3-ylthio)-4-methyl-7-oxo-1-azabicyclo[3.2.0]hept-2-ene-2-carboxylic acid]	2 (≈ 3.47 µM)	2 (≈ 3.47 µM)	2 (≈ 3.47 µM)	0.25 (≈ 0.434 µM)	–	–	–	–	–
CNCC(=O)N[C@H](C)[C@H]1C(=O)N2C(C(=O)O)=C(S[C@@H]3CN[C@H](C(=O)N4CCC(N)(C(N)=O)CC4)C3)[C@H](C)[C@H]12 [Example 277]	64 (≈ 116 µM)	16 (≈ 29 µM)	4 (≈ 7.25 µM)	2 (≈ 3.63 µM)	–	–	–	–	–
C[C@@H](NC(=O)C(C)(C)n1cnnn1)[C@H]1C(=O)N2C(C(=O)O)=C(S[C@@H]3CN[C@H](C(=O)N(C)C)C3)[C@H](C)[C@H]12 [Example 318, (4R,5S,6R)-3-((3S,5S)-5-(dimethylcarbamoyl)pyrrolidin-3-ylthio)-4-methyl-6-((R) - 1-(2-methyl-2-(1H-tetrazol-1-yl)propanaraido)ethyl)-7-oxo-1-azabicyclop[3.2.0]hept-2-ene-2-carboxylic acid]	16 (≈ 30.7 µM)	> 128	128 (≈ 246 µM)	2 (≈ 3.84 µM)	–	–	–	–	–
C[C@@H](NC(=O)Cn1cnnn1)[C@H]1C(=O)N2C(C(=O)O)=C(S[C@@H]3CN[C@H](C(=O)N4CCN(C(=O)[C@@H](N)CN)CC4)C3)[C@H](C)[C@H]12 [Example 456, (4R,5S,6R)-6-((R)-1-(2-(1H-tetrazol-1-yl)acetamido)ethyl)-3-((3S,5S)-5-(4-((S)-2,3-diaminopropanoyl)piperazine-1-carbonyl)pyrrolidin-3-ylthio)-4-methyl-7-oxo-1-azabicyclo[3.2.0]hept-2-ene-2-carboxylic acid]	2 (≈ 3.23 µM)	2 (≈ 3.23 µM)	2 (≈ 3.23 µM)	0.5 (≈ 0.807 µM)	–	–	–	–	–
C[C@@H](NC(=O)Cn1cnnn1)[C@H]1C(=O)N2C(C(=O)O)=C(S[C@@H]3CN[C@H](C(=O)N4CCC(n5nccn5)CC4)C3)[C@H](C)[C@H]12 [Example 448, (4R,5S,6R)-6-((R)-1-(2-(1H-tetrazol-1-yl)acetamido)ethyl)-3-((3S,5S)-5-(4-(2H-1,2,3-triazol-2-yl)piperidine-1-carbooyl)pyrrolidin-3-ylthio)-4-methyl-7-oxo-1-azabicyclo[3.2.0]hept-2-ene-2-carboxylic acid]	4 (≈ 6.67 µM)	> 128	8 (≈ 13.3 µM)	0.5 (≈ 0.834 µM)	–	–	–	–	–
C[C@@H](NC(=O)C(N)C(F)(F)F)[C@H]1C(=O)N2C(C(=O)O)=C(S[C@@H]3CN[C@H](C(=O)N(C)C)C3)[C@H](C)[C@H]12 (stereo partly shown) [Example 388]	8 (≈ 15.8 µM)	> 128	8 (≈ 15.8 µM)	2 (≈ 3.94 µM)	–	–	–	–	–
C[C@@H](NC(=O)Cn1cnnn1)[C@H]1C(=O)N2C(C(=O)O)=C(S[C@@H]3CN[C@H](C(=O)N4CC5CCNC5(CO)C4)C3)[C@H](C)[C@H]12 (single isomer, unassigned) [Example 556]	–	–	–	–	2 (≈ 3.39 µM)	4 (≈ 6.78 µM)	1 (≈ 1.7 µM)	0.125 (≈ 0.212 µM)	–
C[C@@H](NC(=O)CC1CNC1)[C@H]1C(=O)N2C(C(=O)O)=C(S[C@@H]3CN[C@H](C(=O)N4CC[C@@H](N)C4)C3)[C@H](C)[C@H]12 [Example 568, (4R,5S,6R)-3-((3S,5S)-5-((R)-3-aminopyrrolidine-1-carbonyl)pyrroldin-3-ylthio)-6-((R)-1-(2-(azetidin-3-yl)acetamido)ethyl)-4-methyl-7-oxo-1-azabicyclo[3.2.0]hept-2-ene-2-carboxylic acid]	16 (≈ 30.7 µM)	4 (≈ 7.68 µM)	2 (≈ 3.84 µM)	1 (≈ 1.92 µM)	–	–	–	–	–
CNC[C@@H]1CCCN1CC(=O)N[C@H](C)[C@H]1C(=O)N2C(C(=O)O)=C(S[C@@H]3CN[C@H](C(=O)N(C)C)C3)[C@H](C)[C@H]12 [Example 520, (4R,5S,6R)-3-((3S,5S)-5-(dimethylcarbamoyl)pyrrolidin-3-ylthio)-4-methyl-6-((R)-1-(2-((S)-2-((methylamino)methyl)pyrrolidin-1-yl)acetamido)ethyl)-7-oxo-1-azabicyclo[3.2.0]hept-2-ene-2-carboxylic acid]	16 (≈ 29.8 µM)	> 128	16 (≈ 29.8 µM)	2 (≈ 3.73 µM)	–	–	–	–	–
C[C@@H](NC(=O)Cn1cnnn1)[C@H]1C(=O)N2C(C(=O)O)=C(S[C@@H]3CN[C@H](C(=O)N4C5CCC4CC4(CCNC4)C5)C3)[C@H](C)[C@H]12 (stereo partly drawn) [Example 377, (4R,5S,6R)-6-((R)-1-(2-(1H-tetrazol-1-yl)acetamido)ethyl)-3-((3S,5S)-5-(8-azaspiro[bicyclo[3.2.1]octane-3,3′-pyrrolidine]-8-ylcarbonyl)pyrrolidin-3-ylthio)-4-methyl-7-oxo-1-azabicyclo[3.2.0]hept-2-ene-2-carboxylic acid]	4 (≈ 6.52 µM)	8 (≈ 13 µM)	–	0.25 (≈ 0.407 µM)	–	–	–	–	2 (≈ 3.26 µM)
C[C@@H](NC(=O)Cn1cnnn1)[C@H]1C(=O)N2C(C(=O)O)=C(S[C@@H]3CN[C@H](C(=O)N4CC5(CCNCC5)C4)C3)[C@H](C)[C@H]12 [Example 366]	4 (≈ 6.97 µM)	2 (≈ 3.49 µM)	2 (≈ 3.49 µM)	0.25 (≈ 0.436 µM)	–	–	–	–	–
Cc1nnnn1CC(=O)N[C@H](C)[C@H]1C(=O)N2C(C(=O)O)=C(S[C@@H]3CN[C@H](C(=O)N4CC[C@@H](N)C4)C3)[C@H](C)[C@H]12 [Example 331, (4R,5S,6R)-3-((3S,5S)-5-((R)-3-aminopyrrolidine-1-carbonyl)pyrrolidin-3-ylthio)-4-methyl-6-((R) - 1-(2-(5-methyl-1H-tetrazal-1-yl)acetamido)ethyl)-7-oxo-1-azabicyclo[3.2.0]hept-2-ene-2-carboxylic acid]	4 (≈ 7.3 µM)	8 (≈ 14.6 µM)	4 (≈ 7.3 µM)	0.25 (≈ 0.457 µM)	–	–	–	–	–
C[C@@H](NC(=O)Cn1cnnn1)[C@H]1C(=O)N2C(C(=O)O)=C(S[C@@H]3CN[C@H](C(=O)N4CCCC45CCNCC5)C3)[C@H](C)[C@H]12 [Example 477, (4R,5S,6R)-3-((3S,5S)-5-(1,8-diazaspiro[4.5]decane-1-carbonyl)pyrrolidin-3-ylthio)-6-((R)-1-(2-(1H-tetrazol-1-yl)acetamido)ethyl)-4-methyl-7-oxo-1-azabicyclo[3.2.0]hept-2-ene-2-carboxylic acid]	2 (≈ 3.4 µM)	64 (≈ 109 µM)	2 (≈ 3.4 µM)	0.5 (≈ 0.851 µM)	–	–	–	–	–
C[C@@H](NC(=O)C(F)F)[C@H]1C(=O)N2C(C(=O)O)=C(S[C@@H]3CN[C@H](CN)C3)[C@H](C)[C@H]12 [Example 244]	1 (≈ 2.39 µM)	64 (≈ 153 µM)	4 (≈ 9.56 µM)	1 (≈ 2.39 µM)	–	–	–	–	–
C[C@@H](NC(=O)Cn1cnnn1)[C@H]1C(=O)N2C(C(=O)O)=C(S[C@@H]3CN[C@H](C(=O)N4CC[C@@H](N)[C@H]4CO)C3)[C@H](C)[C@H]12 [Example 522, (4R,5S,6R)-6-((R)-1-(2-(1H-tetrazol-1-yl)acetamido)ethyl)-3-((3S,5S)-5-((2S,3R)-3-amino-2-(hydroxymethyl)pyrrolidine-1-carbonyl)pyrrolidin-3-ylthio)-4-methyl-7-oxo-1-azabicyclo[3.2.0]hept-2-ene-2-carboxylic acid]	4 (≈ 7.1 µM)	1 (≈ 1.77 µM)	2 (≈ 3.55 µM)	0.25 (≈ 0.444 µM)	–	–	–	–	–
C[C@@H](NC(=O)Cn1cnnn1)[C@H]1C(=O)N2C(C(=O)O)=C(S[C@@H]3CN[C@H](C(=O)N4CCC[C@H](N)C4)C3)[C@H](C)[C@H]12 [Example 341, (4R,5S,6R)-6-((R) - 1-(2-(1H-tetrazol-1-yl)acetamido)ethyl)-3-((3S,5S)-5-((S)-3-aminopiperidin-1-carbonyl)pyrrolidin-3-ylthio)-4-methyl-7-oxo-1-azabicycio[3.2.0]hept-2-ene-2-carboxylic acid]	4 (≈ 7.3 µM)	8 (≈ 14.6 µM)	4 (≈ 7.3 µM)	1 (≈ 1.83 µM)	–	–	–	–	–
C[C@@H](NC(=O)Cn1cnnn1)[C@H]1C(=O)N2C(C(=O)O)=C(S[C@@H]3CN[C@H](C(=O)N4C[C@@H](N)C[C@H]4CNS(C)(=O)=O)C3)[C@H](C)[C@H]12 [Example 441, (4R,5S,6R)-6-((R)-1-(2-(1H-tetrazol-1-yl)acetamido)ethyl)-3-((3S,5S)-5-((2S,4S)-4-amino-2-(methylsulfonamido-methyl)pyrrolidine-1-carbonyl)pyrrolidin-3-ylthio)-4-methyl-7-oxo-1-azabicyclo[3.2.0]hept-2-ene-2-carboxylic acid]	4 (≈ 6.24 µM)	8 (≈ 12.5 µM)	2 (≈ 3.12 µM)	0.25 (≈ 0.39 µM)	–	–	–	–	–
